Measured values as given in patent US12103945B2, “Crystalline form of vascular leakage blocker compound” (Curacle Co., Ltd., priority 2020, dated 2024).

Legend:
Assay type in all cases: physicochemical
[1] = Thermal gravimetric analysis (TGA); settings: heating from room temperature to 120° C.
Experimental: Samples of compounds (4˜6 mg) were weighed into the pan, and heated under nitrogen purge.
• Ramp rate: 20° C./min over the range 30° C.˜300° C. • Nitrogen purge: 50 mL/min • Samples: About 5 mg

[2] = Dynamic vapor sorption (DVS); settings: for Mass change (%) Desorption / Mass change (%) Sorption / Mass change (%) Hysteresis: 25° C.
Experimental: Around 10 mg of samples were used to test its moisture sorption/desorption profiles.
• Temperature: 25° C. • Equilibrium: dm/dt: 0.01%/min • Relative Humidity (RH) measurement stepscope: 0%˜95%˜0% RH • Relative Humidity (RH) measurement step: 5% RH • Samples: 10-20 mg • Hygroscopicity Classification • Hygroscopicity: Water Sorption Criterion • Deliquescent: Sufficient water is absorbed to form a liquid. • Very hygroscopic: W %≥15% • Hygroscopic: W %≥2% • Slightly hygroscopic: W %≥0.2% • Non-hygroscopic: W %<0.2% • 25±1° C., 80±2% RH

[3] = Accelerated stability test (HPLC purity); settings: for Purity (%): 40 ± 2° C. & 75 ± 5% RH
Experimental: • Column: Agilent Zorbax Rx C8, 4.6 mm×250 mm, 5.0 μm • Moving phase: 85% acetonitrile • Flow rate: 1.0 mL/rain • Wavelength: 205 nm • Injection volume: 10 λL • Column temperature: 30° C. • Diluent: 100% acetonitrile
In order to confirm the stability of the novel crystalline form according to the present invention, the stability of the crystalline form I prepared in Example 1 was evaluated using a liquid chromatography method under the analysis conditions of <Experimental Methods>6. High performance liquid chromatography (HFLC). The results of the accelerated stability test from 1 month to 6 months in the conditions of 40±2° C. & 75±5 RH are shown in Table 15 below.

For `COC(=O)CCC/C=C(\C)[C@H]1CC[C@H]2[C@@H]3CC=C4C[C@@H](O[C@@H]5C=C[C@H](OC(C)=O)[C@@H](COC(C)=O)O5)CC[C@]4(C)[C@H]3CC[C@]12C` [crystalline form I, (E)-methyl 6-((3S,8S,9S,10R,13S,14S,17R)-3-(((2S,5S,6R)-5-acetoxy-6-(acetoxymethyl)-5,6-dihydro-2H-pyran-2-yl)oxy)-10,13-dimethyl-2,3,4,7,8,9,10,11,12,13,14,15,16,17-tetradecahydro-1H-cyclopenta[a]phenanthrene-17-yl)hept-5-enoate], the “mass loss (TGA)” value [1] was 0.078%, the “Mass change (%) Desorption” value ([2]; Target RH 0.0%) was −0.1124% and the “Mass change (%) Sorption” value ([2]; Target RH 0.0%) was 0.0000%. For the same molecule, the “Mass change (%) Desorption” value ([2]; Target RH 5.0%) was −0.1004%, the “Mass change (%) Hysteresis” value ([2]; Target RH 5.0%) was −0.1074% and the “Mass change (%) Sorption” value ([2]; Target RH 5.0%) was 0.0070%. For the same molecule, the “Mass change (%) Desorption” value ([2]; Target RH 10.0%) was −0.0904%, the “Mass change (%) Hysteresis” value ([2]; Target RH 10.0%) was −0.1034% and the “Mass change (%) Sorption” value ([2]; Target RH 10.0%) was 0.0131%. For the same molecule, the “Mass change (%) Desorption” value ([2]; Target RH 15.0%) was −0.0773%, the “Mass change (%) Hysteresis” value ([2]; Target RH 15.0%) was −0.0964% and the “Mass change (%) Sorption” value ([2]; Target RH 15.0%) was 0.0191%. For the same molecule, the “Mass change (%) Desorption” value ([2]; Target RH 20.0%) was −0.0673%, the “Mass change (%) Hysteresis” value ([2]; Target RH 20.0%) was −0.0906% and the “Mass change (%) Sorption” value ([2]; Target RH 20.0%) was 0.0231%. The “Mass change (%) Desorption” value ([2]; Target RH 25.0%) was −0.0492%, the “Mass change (%) Hysteresis” value ([2]; Target RH 25.0%) was −0.0803% and the “Mass change (%) Sorption” value ([2]; Target RH 25.0%) was 0.0311%. For the same molecule, the “Mass change (%) Desorption” value ([2]; Target RH 30.0%) was −0.0402%, the “Mass change (%) Hysteresis” value ([2]; Target RH 30.0%) was −0.0723% and the “Mass change (%) Sorption” value ([2]; Target RH 30.0%) was 0.0321%. For the same molecule, the “Mass change (%) Desorption” value ([2]; Target RH 35.0%) was −0.0261%, the “Mass change (%) Hysteresis” value ([2]; Target RH 35.0%) was −0.0592% and the “Mass change (%) Sorption” value ([2]; Target RH 35.0%) was 0.0331%. The “Mass change (%) Desorption” value ([2]; Target RH 40.0%) was −0.0131%, the “Mass change (%) Hysteresis” value ([2]; Target RH 40.0%) was −0.0582% and the “Mass change (%) Sorption” value ([2]; Target RH 40.0%) was 0.0452%. For the same molecule, the “Mass change (%) Desorption” value ([2]; Target RH 45.0%) was 0.0000%, the “Mass change (%) Hysteresis” value ([2]; Target RH 45.0%) was −0.0512% and the “Mass change (%) Sorption” value ([2]; Target RH 45.0%) was 0.0512%. The “Mass change (%) Desorption” value ([2]; Target RH 50.0%) was 0.0141%, the “Mass change (%) Hysteresis” value ([2]; Target RH 50.0%) was −0.0462% and the “Mass change (%) Sorption” value ([2]; Target RH 50.0%) was 0.0602%. The “Mass change (%) Desorption” value ([2]; Target RH 55.0%) was 0.0261%, the “Mass change (%) Hysteresis” value ([2]; Target RH 55.0%) was −0.0381% and the “Mass change (%) Sorption” value ([2]; Target RH 55.0%) was 0.0642%. For the same molecule, the “Mass change (%) Desorption” value ([2]; Target RH 60.0%) was 0.0392%, the “Mass change (%) Hysteresis” value ([2]; Target RH 60.0%) was −0.0351% and the “Mass change (%) Sorption” value ([2]; Target RH 60.0%) was 0.0743%. The “Mass change (%) Desorption” value ([2]; Target RH 65.0%) was 0.0522%, the “Mass change (%) Hysteresis” value ([2]; Target RH 65.0%) was −0.0291% and the “Mass change (%) Sorption” value ([2]; Target RH 65.0%) was 0.0813%. The “Mass change (%) Desorption” value ([2]; Target RH 70.0%) was 0.0663%, the “Mass change (%) Hysteresis” value ([2]; Target RH 70.0%) was −0.0231% and the “Mass change (%) Sorption” value ([2]; Target RH 70.0%) was 0.0893%. For the same molecule, the “Mass change (%) Desorption” value ([2]; Target RH 75.0%) was 0.0823%, the “Mass change (%) Hysteresis” value ([2]; Target RH 75.0%) was −0.0191% and the “Mass change (%) Sorption” value ([2]; Target RH 75.0%) was 0.1014%. For the same molecule, the “Mass change (%) Desorption” value ([2]; Target RH 80.0%) was 0.0964%, the “Mass change (%) Hysteresis” value ([2]; Target RH 80.0%) was −0.0131% and the “Mass change (%) Sorption” value ([2]; Target RH 80.0%) was 0.1094%. For the same molecule, the “Mass change (%) Desorption” value ([2]; Target RH 85.0%) was 0.1114%, the “Mass change (%) Hysteresis” value ([2]; Target RH 85.0%) was −0.0080% and the “Mass change (%) Sorption” value ([2]; Target RH 85.0%) was 0.1195%. The “Mass change (%) Desorption” value ([2]; Target RH 90.0%) was 0.1325%, the “Mass change (%) Hysteresis” value ([2]; Target RH 90.0%) was −0.0010% and the “Mass change (%) Sorption” value ([2]; Target RH 90.0%) was 0.1335%. For the same molecule, the “Mass change (%) Desorption” value ([2]; Target RH 95.0%) was 0.1436%, the “Mass change (%) Sorption” value ([2]; Target RH 95.0%) was 0.1436% and the Hygroscopicity classification ([2]; 25±1° C., 80±2% RH) was “non-hygroscopic”. The water sorption ([2]; at 80% RH) was 0.11%, the “Purity (%)” value ([3]; storage time 1 month) was 99.8% and the “Purity (%)” value ([3]; storage time 3 months) was 99.8%. The “Purity (%)” value ([3]; storage time 6 months) was 99.8%, the “Purity (%)” value ([3]; storage time Initial) was 99.8% and the “Accelerated stability (result in words)” value ([3]; 40±2° C. & 75±5 RH, 1 month to 6 months) was “stably maintained for up to 6 months without affecting the purity”.
